Data on three compounds can be found in ChEMBL document CHEMBL5696442, “Discovery of type II inhibitors of TGFβ-activated kinase 1 (TAK1) and mitogen-activated protein kinase kinase kinase kinase 2 (MAP4K2)” (J Med Chem, 2015).

SMILES strings stand for the structures. Active and inactive are the calls of the source. The rule behind the calls is not given here.

For experiment [1], the target named is Serine/threonine-protein kinase 38 (Homo sapiens) (UniProt Q15208). Nature of the experiment: Inhibition of NDR1 Lys1 labeling site in human A-375 cells at 0.05 uM by KiNativ Profiling analysis relative to control. The format is cell-based.
For experiment [2], the target named is T1, Dual specificity mitogen-activated protein kinase kinase 6 (Homo sapiens) (UniProt P52564).
T1 sequence (whole entry): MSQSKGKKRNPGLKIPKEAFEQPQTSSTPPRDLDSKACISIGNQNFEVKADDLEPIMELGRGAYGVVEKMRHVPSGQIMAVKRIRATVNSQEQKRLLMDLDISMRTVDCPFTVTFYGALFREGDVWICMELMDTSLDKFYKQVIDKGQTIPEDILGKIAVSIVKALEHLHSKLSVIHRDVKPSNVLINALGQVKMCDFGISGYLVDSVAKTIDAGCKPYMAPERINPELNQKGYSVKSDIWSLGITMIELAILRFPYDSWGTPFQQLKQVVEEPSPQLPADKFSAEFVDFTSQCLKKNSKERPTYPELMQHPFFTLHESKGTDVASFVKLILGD
Nature of the experiment: Inhibition of MEK6 (unknown origin) at 1 uM by Ambit Kinomescan binding assay relative to control; values are per cent of control.

Experiment [3] has as its target Serine/threonine-protein kinase B-raf (Homo sapiens, UniProt P15056). As to the kind of experiment: Inhibition of BRAF (unknown origin) at 1 uM by Ambit Kinomescan binding assay relative to control.
For experiment [4], the target named is Calcium/calmodulin-dependent protein kinase type II subunit gamma (Homo sapiens) (UniProt Q13555). As to the kind of experiment: Inhibition of CaMK2g Lys1 labeling site harbouring TSTQEYAAKIINTK in human A-375 cells at 5 uM by KiNativ Profiling analysis relative to control. It is filed as cell-based.
Chain of Calcium/calmodulin-dependent protein kinase type II subunit gamma (Homo sapiens) (Q13555 whole entry): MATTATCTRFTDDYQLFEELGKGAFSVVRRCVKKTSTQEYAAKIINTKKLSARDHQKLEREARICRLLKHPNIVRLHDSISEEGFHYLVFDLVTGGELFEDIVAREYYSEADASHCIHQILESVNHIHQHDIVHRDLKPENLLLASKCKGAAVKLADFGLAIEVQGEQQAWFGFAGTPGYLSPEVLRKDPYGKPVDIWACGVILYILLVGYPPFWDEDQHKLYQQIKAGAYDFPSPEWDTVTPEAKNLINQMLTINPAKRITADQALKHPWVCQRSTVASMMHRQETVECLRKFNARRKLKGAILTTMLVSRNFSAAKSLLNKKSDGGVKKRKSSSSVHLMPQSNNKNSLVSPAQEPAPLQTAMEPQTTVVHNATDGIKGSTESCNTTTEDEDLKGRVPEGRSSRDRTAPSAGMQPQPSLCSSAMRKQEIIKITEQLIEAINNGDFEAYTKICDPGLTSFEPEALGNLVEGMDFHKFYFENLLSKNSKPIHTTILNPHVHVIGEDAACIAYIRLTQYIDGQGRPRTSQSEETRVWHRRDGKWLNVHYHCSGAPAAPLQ
For experiment [5], the system named is Tyrosine-protein kinase ABL1 (Homo sapiens), P00519 [F317L]. Nature of the experiment: Inhibition of phosphorylated ABL1 F317L mutant (unknown origin) at 1 uM by Ambit Kinomescan binding assay relative to control; values are per cent of control.
Chain of Tyrosine-protein kinase ABL1 (Homo sapiens), P00519 [F317L] (P00519 whole entry F317L): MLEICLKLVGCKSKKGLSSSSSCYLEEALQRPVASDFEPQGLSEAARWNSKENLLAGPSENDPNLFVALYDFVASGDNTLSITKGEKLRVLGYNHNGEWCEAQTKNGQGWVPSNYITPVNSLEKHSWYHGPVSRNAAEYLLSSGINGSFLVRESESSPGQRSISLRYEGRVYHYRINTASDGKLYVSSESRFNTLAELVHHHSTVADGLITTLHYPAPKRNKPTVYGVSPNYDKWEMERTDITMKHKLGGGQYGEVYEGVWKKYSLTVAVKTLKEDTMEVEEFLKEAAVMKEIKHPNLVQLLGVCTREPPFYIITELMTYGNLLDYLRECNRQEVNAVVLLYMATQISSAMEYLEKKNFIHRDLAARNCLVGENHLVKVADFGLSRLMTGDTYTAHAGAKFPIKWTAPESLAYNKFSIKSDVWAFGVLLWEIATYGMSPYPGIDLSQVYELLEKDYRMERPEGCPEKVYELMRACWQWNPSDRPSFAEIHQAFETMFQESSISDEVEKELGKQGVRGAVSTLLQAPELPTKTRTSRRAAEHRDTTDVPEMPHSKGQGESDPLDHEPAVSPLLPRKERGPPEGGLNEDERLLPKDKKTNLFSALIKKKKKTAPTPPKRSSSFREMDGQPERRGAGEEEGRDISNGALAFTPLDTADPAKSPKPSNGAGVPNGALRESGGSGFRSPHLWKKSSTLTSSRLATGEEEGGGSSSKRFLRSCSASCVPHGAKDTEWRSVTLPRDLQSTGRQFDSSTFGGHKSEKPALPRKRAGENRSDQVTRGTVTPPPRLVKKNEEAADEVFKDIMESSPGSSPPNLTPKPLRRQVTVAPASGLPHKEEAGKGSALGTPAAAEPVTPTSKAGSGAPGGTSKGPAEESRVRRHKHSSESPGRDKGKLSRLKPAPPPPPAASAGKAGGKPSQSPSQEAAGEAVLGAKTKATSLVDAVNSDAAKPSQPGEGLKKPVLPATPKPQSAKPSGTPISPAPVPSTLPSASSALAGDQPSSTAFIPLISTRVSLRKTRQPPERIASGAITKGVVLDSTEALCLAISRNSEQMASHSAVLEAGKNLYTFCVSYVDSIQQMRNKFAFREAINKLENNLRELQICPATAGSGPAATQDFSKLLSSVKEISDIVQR
Experiment [6] has as its target T2, Serine/threonine-protein kinase ULK3 (Homo sapiens) (UniProt Q6PHR2).
T2 sequence (whole entry): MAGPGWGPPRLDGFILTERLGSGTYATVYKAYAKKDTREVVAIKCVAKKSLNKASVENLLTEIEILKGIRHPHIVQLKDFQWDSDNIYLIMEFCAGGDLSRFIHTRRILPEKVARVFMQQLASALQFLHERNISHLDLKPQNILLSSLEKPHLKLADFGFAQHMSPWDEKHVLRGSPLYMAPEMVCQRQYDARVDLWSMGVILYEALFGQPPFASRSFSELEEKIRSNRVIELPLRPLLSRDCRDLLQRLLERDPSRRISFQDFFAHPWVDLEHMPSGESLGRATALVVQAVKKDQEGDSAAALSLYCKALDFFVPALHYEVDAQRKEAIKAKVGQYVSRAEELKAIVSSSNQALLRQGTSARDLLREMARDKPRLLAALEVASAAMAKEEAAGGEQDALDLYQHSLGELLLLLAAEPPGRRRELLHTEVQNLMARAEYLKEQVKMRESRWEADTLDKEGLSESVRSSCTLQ
As to the kind of experiment: Inhibition of ULK3 Lys2 labeling site in human A-375 cells at 0.05 uM by KiNativ Profiling analysis relative to control. The format is cell-based.

Experiment [7] in a line: Inhibition of KHS1 Lys2 labeling site in human A-375 cells at 5 uM by KiNativ Profiling analysis relative to control. Particulars: condition cancer.
The target of experiment [8] is Focal adhesion kinase 1 (Homo sapiens) (UniProt Q05397). As to the kind of experiment: Inhibition of FAK Lys1 labeling site in human A-375 cells at 5 uM by KiNativ Profiling analysis relative to control. The format is cell-based.
Chain of Focal adhesion kinase 1 (Homo sapiens) (Q05397 2-1052 limits assumed): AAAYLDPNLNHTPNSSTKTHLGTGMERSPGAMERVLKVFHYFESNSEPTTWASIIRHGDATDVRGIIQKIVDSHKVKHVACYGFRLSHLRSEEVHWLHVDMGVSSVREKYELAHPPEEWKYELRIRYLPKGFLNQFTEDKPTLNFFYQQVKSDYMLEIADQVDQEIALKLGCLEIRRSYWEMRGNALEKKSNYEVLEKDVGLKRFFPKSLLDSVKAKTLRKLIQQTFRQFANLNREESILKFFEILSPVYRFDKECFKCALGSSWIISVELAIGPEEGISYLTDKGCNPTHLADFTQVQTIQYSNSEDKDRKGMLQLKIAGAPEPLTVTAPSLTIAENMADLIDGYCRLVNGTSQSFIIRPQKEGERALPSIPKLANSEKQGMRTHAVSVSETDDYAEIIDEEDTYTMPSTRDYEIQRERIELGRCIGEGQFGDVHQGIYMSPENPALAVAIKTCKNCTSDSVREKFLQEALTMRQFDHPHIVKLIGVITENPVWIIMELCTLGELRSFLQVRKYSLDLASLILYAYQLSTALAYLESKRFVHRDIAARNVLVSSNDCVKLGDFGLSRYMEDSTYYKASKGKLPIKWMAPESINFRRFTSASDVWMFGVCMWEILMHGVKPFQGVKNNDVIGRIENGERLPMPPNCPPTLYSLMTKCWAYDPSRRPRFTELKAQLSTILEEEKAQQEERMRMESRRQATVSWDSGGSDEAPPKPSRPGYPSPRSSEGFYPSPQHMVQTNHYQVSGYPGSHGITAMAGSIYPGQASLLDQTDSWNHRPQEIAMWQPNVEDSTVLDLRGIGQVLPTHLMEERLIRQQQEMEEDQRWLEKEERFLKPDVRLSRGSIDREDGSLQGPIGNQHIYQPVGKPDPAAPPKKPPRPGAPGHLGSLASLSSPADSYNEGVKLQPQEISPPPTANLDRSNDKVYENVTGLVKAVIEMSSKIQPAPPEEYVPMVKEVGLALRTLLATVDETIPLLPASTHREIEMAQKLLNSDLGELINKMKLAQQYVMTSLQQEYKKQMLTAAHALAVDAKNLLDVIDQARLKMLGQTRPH
The target of experiment [9] is Mitogen-activated protein kinase 15 (Homo sapiens) (UniProt Q8TD08). As to the kind of experiment: Inhibition of ERK8 (unknown origin) at 10 uM by Ambit Kinomescan binding assay.
Experiment [10] deals with Serine/threonine-protein kinase Nek2 (Homo sapiens) (UniProt P51955). Nature of the experiment: Inhibition of NEK2 (unknown origin) at 10 uM by Ambit Kinomescan binding assay.
Chain of Serine/threonine-protein kinase Nek2 (Homo sapiens) (P51955 whole entry): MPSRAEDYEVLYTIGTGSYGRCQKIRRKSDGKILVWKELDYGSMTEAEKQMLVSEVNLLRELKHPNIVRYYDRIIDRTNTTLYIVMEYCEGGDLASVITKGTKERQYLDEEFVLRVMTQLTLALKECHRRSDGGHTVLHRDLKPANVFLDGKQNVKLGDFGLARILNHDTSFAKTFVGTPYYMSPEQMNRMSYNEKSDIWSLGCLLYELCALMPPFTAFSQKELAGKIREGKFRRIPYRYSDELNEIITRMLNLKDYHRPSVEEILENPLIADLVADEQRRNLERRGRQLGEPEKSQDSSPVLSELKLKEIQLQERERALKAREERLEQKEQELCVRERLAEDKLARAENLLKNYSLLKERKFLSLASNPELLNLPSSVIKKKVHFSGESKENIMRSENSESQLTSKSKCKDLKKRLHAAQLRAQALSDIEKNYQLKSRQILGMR
For experiment [11], the target named is TRAF2 and NCK-interacting protein kinase (Homo sapiens) (UniProt Q9UKE5). As to the kind of experiment: Inhibition of ZC2/TNIK Lys2 labeling site in human A-375 cells at 5 uM by KiNativ Profiling analysis relative to control. It is filed as cell-based.
The target of experiment [12] is Ribosomal protein S6 kinase alpha-4 (Homo sapiens) (UniProt O75676). As to the kind of experiment: Inhibition of MSK2 domain1 ATP labeling site in human Huh-7 cell lysate at 1 uM by KiNativ Profiling analysis relative to control. It is filed as subcellular.
For experiment [13], the target named is Phosphatidylinositol 4,5-bisphosphate 3-kinase catalytic subunit beta isoform (Homo sapiens) (UniProt P42338). Nature of the experiment: Inhibition of PIK3CB ATP labeling site harbouring VFGEDSVGVIFKNGDDLRQDMLTLQMLR in human Huh-7 cell lysate at 1 uM by KiNativ Profiling analysis relative to control. It is filed as subcellular.
Chain of Phosphatidylinositol 4,5-bisphosphate 3-kinase catalytic subunit beta isoform (Homo sapiens) (P42338 whole entry, looked up, canonical isoform): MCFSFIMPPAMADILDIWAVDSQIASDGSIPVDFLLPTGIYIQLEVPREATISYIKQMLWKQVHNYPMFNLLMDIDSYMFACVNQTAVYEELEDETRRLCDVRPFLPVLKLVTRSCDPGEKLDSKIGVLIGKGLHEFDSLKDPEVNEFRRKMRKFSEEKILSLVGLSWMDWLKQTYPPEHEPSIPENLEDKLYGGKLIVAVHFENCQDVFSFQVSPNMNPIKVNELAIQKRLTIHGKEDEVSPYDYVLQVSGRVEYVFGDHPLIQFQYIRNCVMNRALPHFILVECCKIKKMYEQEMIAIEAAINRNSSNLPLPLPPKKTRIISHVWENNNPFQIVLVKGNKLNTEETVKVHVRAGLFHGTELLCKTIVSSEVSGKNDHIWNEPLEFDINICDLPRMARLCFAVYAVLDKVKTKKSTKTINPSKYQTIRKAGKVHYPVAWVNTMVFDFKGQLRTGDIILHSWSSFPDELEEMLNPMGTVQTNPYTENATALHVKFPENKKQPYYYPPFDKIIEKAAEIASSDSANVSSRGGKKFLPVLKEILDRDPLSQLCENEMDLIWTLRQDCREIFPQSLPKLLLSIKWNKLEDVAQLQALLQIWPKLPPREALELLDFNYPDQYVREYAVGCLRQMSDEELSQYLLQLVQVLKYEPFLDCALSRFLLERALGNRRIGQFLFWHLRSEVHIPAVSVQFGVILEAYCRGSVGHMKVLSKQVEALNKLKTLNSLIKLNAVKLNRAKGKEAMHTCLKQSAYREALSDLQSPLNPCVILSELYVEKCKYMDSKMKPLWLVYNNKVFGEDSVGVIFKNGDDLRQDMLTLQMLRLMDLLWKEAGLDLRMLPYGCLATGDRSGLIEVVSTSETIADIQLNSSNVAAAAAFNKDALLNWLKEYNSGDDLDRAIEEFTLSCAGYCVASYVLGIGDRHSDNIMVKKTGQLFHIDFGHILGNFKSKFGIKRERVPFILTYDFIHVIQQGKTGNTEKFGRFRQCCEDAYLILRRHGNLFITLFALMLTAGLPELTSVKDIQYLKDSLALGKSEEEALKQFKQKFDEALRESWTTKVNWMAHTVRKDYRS
In experiment [14] the target is T3, Aurora kinase A (Homo sapiens) (UniProt O14965).
T3 sequence (whole entry): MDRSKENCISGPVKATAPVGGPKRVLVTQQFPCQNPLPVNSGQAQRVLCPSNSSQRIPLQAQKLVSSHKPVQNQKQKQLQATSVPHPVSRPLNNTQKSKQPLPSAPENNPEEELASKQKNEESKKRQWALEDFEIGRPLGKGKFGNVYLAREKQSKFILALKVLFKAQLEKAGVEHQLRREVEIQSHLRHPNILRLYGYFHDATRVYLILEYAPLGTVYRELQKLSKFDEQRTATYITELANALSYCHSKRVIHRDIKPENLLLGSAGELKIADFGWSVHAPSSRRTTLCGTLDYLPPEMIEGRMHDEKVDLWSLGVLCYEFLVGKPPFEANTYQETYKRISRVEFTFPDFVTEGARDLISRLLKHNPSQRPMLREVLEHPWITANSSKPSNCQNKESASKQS
As to the kind of experiment: Inhibition of AurA Lys2 labeling site in human Huh-7 cell lysate at 1 uM by KiNativ Profiling analysis relative to control. It is filed as subcellular.

The target in experiment [15] is Proto-oncogene tyrosine-protein kinase Src (Homo sapiens, UniProt P12931). As to the kind of experiment: Inhibition of SRC ACT labeling site in human Huh-7 cell lysate at 1 uM by KiNativ Profiling analysis relative to control. It is filed as subcellular.

Chain of Serine/threonine-protein kinase B-raf (P15056 whole entry): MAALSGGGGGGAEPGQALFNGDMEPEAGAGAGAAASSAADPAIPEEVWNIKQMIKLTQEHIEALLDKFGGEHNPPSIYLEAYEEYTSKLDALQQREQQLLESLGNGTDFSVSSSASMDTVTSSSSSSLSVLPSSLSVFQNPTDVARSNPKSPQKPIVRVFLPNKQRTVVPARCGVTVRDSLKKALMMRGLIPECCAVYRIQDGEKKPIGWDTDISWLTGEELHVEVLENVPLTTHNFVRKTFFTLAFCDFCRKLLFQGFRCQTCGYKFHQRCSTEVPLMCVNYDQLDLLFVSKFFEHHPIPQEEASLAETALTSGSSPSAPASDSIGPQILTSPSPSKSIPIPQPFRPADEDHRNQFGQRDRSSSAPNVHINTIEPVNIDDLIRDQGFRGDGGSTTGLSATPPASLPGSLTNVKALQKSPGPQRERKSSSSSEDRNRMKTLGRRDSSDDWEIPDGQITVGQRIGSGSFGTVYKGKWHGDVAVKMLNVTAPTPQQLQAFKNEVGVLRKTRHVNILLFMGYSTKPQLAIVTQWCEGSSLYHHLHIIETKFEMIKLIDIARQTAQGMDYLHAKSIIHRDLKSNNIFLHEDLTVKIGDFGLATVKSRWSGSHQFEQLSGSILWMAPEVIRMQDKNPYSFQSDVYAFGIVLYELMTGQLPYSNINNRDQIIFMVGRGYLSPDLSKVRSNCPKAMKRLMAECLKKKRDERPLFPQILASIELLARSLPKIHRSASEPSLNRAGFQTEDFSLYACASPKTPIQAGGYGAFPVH

One may read the inhibition as the relative decrease from the control value, in per cent. With `CCN1CCN(Cc2ccc(NC(=O)c3ccc(C)c(/C=C/c4cnc5[nH]ccc5c4OC)c3)cc2C(F)(F)F)CC1`, the inhibition in experiment [1] worked out at 3.2%; in experiment [3], 17%; in experiment [4] it was 14.6%. Besides, the residual activity in [2] is 100%. The same compound displayed a percent of control in [5] of 3.4%.

Turning to `CCN1CCN(Cc2ccc(NC(=O)c3ccc(C)c(Oc4ccnc5[nH]ccc45)c3)cc2C(F)(F)F)CC1`, the figures for the inhibition in [6], in [8] and in experiment [11] were 6.7%, 13.8% and 92.7%, respectively. In addition, in experiment [7], the inhibition at 5 µM was 42.8%. In addition, the inhibition entry in experiment [9] and in experiment [10] was “inactive” each time.

In the case of `CNc1cc(Oc2cc(C(=O)Nc3cc(N4CCN(C)CC4)cc(C(F)(F)F)c3)ccc2C)ncn1`, the inhibition was -8% in experiment [12], 15.8% in [13], 6.6% in [14] and 22% in experiment [15].
